# ChEMBL document CHEMBL2440076, “New triarylpyrazoles as broad-spectrum anticancer agents: design, synthesis, and biological evaluation” (Eur J Med Chem, 2013)
# What was measured:
# [1] = system: K562; test: Growth inhibition of human K562 cells after 48 hrs by sulforhodamine B assay; type: functional; conditions: K562, 48 h
# [2] = system: UO-31; test: Growth inhibition of human UO31 cells after 48 hrs by sulforhodamine B assay; type: functional; conditions: UO-31, 48 h
# [3] = system: OVCAR-4; test: Growth inhibition of human OVCAR4 cells assessed as cell growth at 10 uM after 48 hrs by sulforhodamine B assay; type: functional; conditions: OVCAR-4, 48 h, read-out: Activity
# [4] = system: BT-549; test: Growth inhibition of human BT549 cells assessed as cell growth at 10 uM after 48 hrs by sulforhodamine B assay; type: functional; conditions: BT-549, 48 h, read-out: Activity
# [5] = system: RPMI-8226; test: Growth inhibition of human RPMI8226 cells after 48 hrs by sulforhodamine B assay; type: functional, cell-based; conditions: RPMI-8226, 48 h
# [6] = system: KM12; test: Growth inhibition of human KM12 cells after 48 hrs by sulforhodamine B assay; type: functional, cell-based; conditions: KM12, 48 h
# [7] = system: ACHN; test: Growth inhibition of human ACHN cells assessed as cell growth at 10 uM after 48 hrs by sulforhodamine B assay; type: functional; conditions: read-out: Activity
# [8] = system: RXF 393; test: Growth inhibition of human RXF393 cells after 48 hrs by sulforhodamine B assay; type: functional; conditions: RXF 393, 48 h
# [9] = system: CCRF-CEM; test: Growth inhibition of human CCRF-CEM cells assessed as cell growth at 10 uM after 48 hrs by sulforhodamine B assay; type: functional; conditions: read-out: Activity
# [10] = system: SW-620; test: Growth inhibition of human SW620 cells after 48 hrs by sulforhodamine B assay; type: functional; conditions: SW-620, 48 h
# [11] = system: UACC-257; test: Growth inhibition of human UACC257 cells assessed as cell growth at 10 uM after 48 hrs by sulforhodamine B assay; type: functional; conditions: UACC-257, 48 h, read-out: Activity
# [12] = system: MCF7; test: Growth inhibition of human MCF7 cells assessed as cell growth at 10 uM after 48 hrs by sulforhodamine B assay; type: functional; conditions: MCF7, 48 h, read-out: Activity
# [13] = system: OVCAR-5; test: Growth inhibition of human OVCAR5 cells assessed as cell growth at 10 uM after 48 hrs by sulforhodamine B assay; type: functional; conditions: OVCAR-5, 48 h, read-out: Activity
# [14] = system: OVCAR-8; test: Growth inhibition of human OVCAR8 cells after 48 hrs by sulforhodamine B assay; type: functional; conditions: OVCAR-8, 48 h
# [15] = system: A498; test: Growth inhibition of human A498 cells after 48 hrs by sulforhodamine B assay; type: functional, cell-based; conditions: A498, 48 h
# [16] = system: U-251; test: Growth inhibition of human U251 cells assessed as cell growth at 10 uM after 48 hrs by sulforhodamine B assay; type: functional; conditions: U-251, 48 h, read-out: Activity
# [17] = Growth inhibition of human Hs 578T cells assessed as cell growth at 10 uM after 48 hrs by sulforhodamine B assay; type: functional; conditions: read-out: Activity
# [18] = system: RXF 393; test: Growth inhibition of human RXF393 cells assessed as cell growth at 10 uM after 48 hrs by sulforhodamine B assay; type: functional; conditions: RXF 393, 48 h, read-out: Activity
# [19] = system: IGROV-1; test: Growth inhibition of human IGROV1 cells assessed as cell growth at 10 uM after 48 hrs by sulforhodamine B assay; type: functional; conditions: IGROV-1, 48 h, read-out: Activity
# [20] = system: NCI-H460; test: Growth inhibition of human NCI-H460 cells after 48 hrs by sulforhodamine B assay; type: functional; conditions: NCI-H460, 48 h
# [21] = system: OVCAR-5; test: Growth inhibition of human OVCAR5 cells after 48 hrs by sulforhodamine B assay; type: functional; conditions: OVCAR-5, 48 h
# [22] = system: DU-145; test: Growth inhibition of human DU145 cells assessed as cell growth at 10 uM after 48 hrs by sulforhodamine B assay; type: functional; conditions: DU-145, 48 h, read-out: Activity
# [23] = system: DU-145; test: Growth inhibition of human DU145 cells after 48 hrs by sulforhodamine B assay; type: functional; conditions: DU-145, 48 h
# [24] = system: UACC-62; test: Growth inhibition of human UACC62 cells assessed as cell growth at 10 uM after 48 hrs by sulforhodamine B assay; type: functional; conditions: UACC-62, 48 h, read-out: Activity
# [25] = system: NCI-H322M; test: Growth inhibition of human NCI-H322M cells assessed as cell growth at 10 uM after 48 hrs by sulforhodamine B assay; type: functional; conditions: read-out: Activity
# [26] = system: MCF7; test: Growth inhibition of human MCF7 cells after 48 hrs by sulforhodamine B assay; type: functional; conditions: MCF7, 48 h
# [27] = system: IGROV-1; test: Growth inhibition of human IGROV1 cells after 48 hrs by sulforhodamine B assay; type: functional; conditions: IGROV-1, 48 h
# [28] = system: BT-549; test: Growth inhibition of human BT549 cells after 48 hrs by sulforhodamine B assay; type: functional; conditions: BT-549, 48 h
# [29] = system: SN12C; test: Growth inhibition of human SN12C cells assessed as cell growth at 10 uM after 48 hrs by sulforhodamine B assay; type: functional; conditions: read-out: Activity
# [30] = system: A549; test: Growth inhibition of human A549/ATCC cells after 48 hrs by sulforhodamine B assay; type: functional; conditions: A549, 48 h
# [31] = system: K562; test: Growth inhibition of human K562 cells assessed as cell growth at 10 uM after 48 hrs by sulforhodamine B assay; type: functional; conditions: K562, 48 h, read-out: Activity
# [32] = system: NCI-H322M; test: Growth inhibition of human NCI-H322M cells after 48 hrs by sulforhodamine B assay; type: functional
# [33] = system: CAKI-1; test: Growth inhibition of human CAKI-1 cells assessed as cell growth at 10 uM after 48 hrs by sulforhodamine B assay; type: functional; conditions: CAKI-1, 48 h, read-out: Activity
# [34] = system: CCRF-CEM; test: Growth inhibition of human CCRF-CEM cells after 48 hrs by sulforhodamine B assay; type: functional
# [35] = system: NCI-H522; test: Growth inhibition of human NCI-H522 cells after 48 hrs by sulforhodamine B assay; type: functional; conditions: NCI-H522, 48 h
# [36] = read-out: LC50 (the source's name)
compound,measurement,setting,value
O=C(Nc1cccc(-n2cc(-c3ccncc3)c(-c3ccc(Cl)c(O)c3)n2)c1)c1ccc(N2CCOCC2)c(C(F)(F)F)c1,GI50,[1],1880 nM
same,TGI,[1],> 50 µM
same,CC50,[1]; [36],> 50 µM
same,GI50,[2],2600 nM
same,TGI,[2],34.3 µM
same,CC50,[2]; [36],> 50 µM
same,growth at 10 µM,[3],108%
same,growth at 10 µM,[4],63.6%
same,GI50,[5],1400 nM
same,IC50,[5],1400 nM
same,TGI,[5],12.5 µM
same,CC50,[5]; [36],> 50 µM
same,GI50,[6],1940 nM
same,TGI,[6],> 50 µM
same,CC50,[6]; [36],> 50 µM
same,growth at 10 µM,[7],36.6%
same,GI50,[8],626 nM
same,LC50 (concentration killing 50% of cells),[8],> 50 µM
same,TGI,[8],2900 nM
same,growth at 10 µM,[9],27.9%
same,GI50,[10],1720 nM
same,TGI,[10],5.68 µM
same,CC50,[10]; [36],> 50 µM
same,growth at 10 µM,[11],38.9%
same,growth at 10 µM,[12],60.6%
same,growth at 10 µM,[13],116%
same,GI50,[14],3.16 µM
same,TGI,[14],> 50 µM
same,CC50,[14]; [36],> 50 µM
same,GI50,[15],15.5 µM
same,IC50,[15],15.5 µM
same,TGI,[15],> 50 µM
same,CC50,[15]; [36],> 50 µM
same,growth at 10 µM,[16],11.8%
same,growth at 10 µM,[17],15.5%
same,growth at 10 µM,[18],-26%
same,growth at 10 µM,[19],96.8%
same,GI50,[20],1720 nM
same,LC50,[20],> 50 µM
same,TGI,[20],14.8 µM
same,GI50,[21],> 50 µM
same,LC50 (concentration killing 50% of cells),[21],> 50 µM
same,TGI,[21],> 50 µM
same,growth at 10 µM,[22],52.7%
same,GI50,[23],4.2 µM
same,LC50,[23],> 50 µM
same,TGI,[23],> 50 µM
same,growth at 10 µM,[24],49.2%
same,growth at 10 µM,[25],82.1%
same,GI50,[26],2810 nM
same,LC50,[26],> 50 µM
same,TGI,[26],> 50 µM
same,GI50,[27],9.42 µM
same,LC50 (concentration killing 50% of cells),[27],> 50 µM
same,TGI,[27],> 50 µM
same,GI50,[28],19.4 µM
same,LC50 (50% lethal concentration),[28],> 50 µM
same,TGI,[28],> 50 µM
same,growth at 10 µM,[29],73.9%
same,GI50,[30],3.08 µM
same,LC50 (concentration killing 50% of starting cells),[30],> 50 µM
same,TGI,[30],> 50 µM
same,growth at 10 µM,[31],7.96%
same,GI50,[32],> 50 µM
same,TGI,[32],> 50 µM
same,CC50,[32]; [36],> 50 µM
same,growth at 10 µM,[33],81.2%
same,GI50,[34],1820 nM
same,LC50,[34],> 50 µM
same,TGI,[34],> 50 µM
same,GI50,[35],2310 nM
same,LC50 (concentration killing 50% of cells),[35],> 50 µM
same,TGI,[35],44 µM
